Test results taken from patent publication US9266834B2, “1, 4-disubstituted 3-cyano-pyridone derivatives and their use as positive allosteric modulators of MGLUR2-receptors” (JANSSEN PHARMACEUTICALS, INC., priority 2006, dated 2016).

Target: T1, human mGluR2 receptor (Homo sapiens, UniProt Q14416)
T1 construct: expressed in transfected cells; host or cells: CHO cells (membrane preparation)
Test: [35S]GTPγS binding assay (GTPγS-PAM): positive allosteric modulation in presence of glutamate at EC25, membranes from transfected CHO cells
Format: biochemical
Conditions: in presence of mGluR2 agonist glutamate at predetermined EC25 concentration, averages of duplicate values of 11-concentration response curves; for EC50: read-out: GTPgS - hR2 PAM pEC50 (converted)
Excerpt: The compounds provided in the present invention are positive allosteric modulators of mGluR2. These compounds appear to potentiate glutamate responses by binding to an allosteric site other than the glutamate binding site. The response of mGluR2 to a concentration of glutamate is increased when compounds of Formula (I) are present. Compounds of Formula (I) are expected to have their effect substantially at mGluR2 by virtue of their ability to enhance the function of the receptor. The behaviour of positive allosteric modulators tested at mGluR2 using the [^35S]GTPγS binding assay method described below and which is suitable for the identification of such compounds, and more particularly the compounds according to Formula (I), are shown in Table 4.
[^35S]GTPγS Binding Assay
The [^35S]GTPγS binding is a functional membrane-based assay used to study G-protein coupled receptor (GPCR) function whereby incorporation of a non-hydrolysable form of GTP, [^35S]GTPγS (guanosine 5′-triphosphate, labelled with […] ^35S), is measured. The G-protein o subunit catalyzes the exchange of guanosine 5′-diphosphate (GDP) by guanosine triphosphate (GTP) and on activation of the GPCR by an agonist, [^35S]GTPγS, becomes incorporated and cannot be cleaved to continue the exchange cycle (Harper (1998) Current Protocols in Pharmacology 2.6.1-10, John Wiley & Sons, Inc.). […] Here we describe the use of the [^35S]GTPγS binding assay using membranes from cells transfected with the human mGluR2 receptor and adapted from Schaffhauser et al ((2003) Molecular Pharmacology 4:798-810) for the detection of the positive allosteric modulation (PAM) properties of the compounds of this invention.
CHO-cells were cultured to pre-confluence and stimulated with 5 mM butyrate for 24 hours, prior to washing in PBS, and then collection by scraping in homogenisation buffer (50 mM Tris-HCl buffer, pH 7.4, 4° C.). Cell lysates were homogenized briefly (15 s) using an ultra-turrax homogenizer. The homogenate was centrifuged at 23 500×g for 10 minutes and the supernatant discarded. The pellet was resuspended in 5 mM Tris-HCl, pH 7.4 and centrifuged again (30 000×g, 20 min, 4° C.). The final pellet was resuspended in 50 mM HEPES, pH 7.4 and stored at −80° C. in appropriate aliquots before use. Protein concentration was determined by the Bradford method (Bio-Rad, USA) with bovine serum albumin as standard.
Measurement of mGluR2 positive allosteric modulators in membranes containing human mGluR2 was performed using frozen membranes that were thawed and briefly homogenised prior to pre-incubation in 96-well microplates (15 μg/assay well, 30 minutes, 30° C.) in assay buffer (50 mM HEPES pH 7.4, 100 mM NaCl, 3 mM MgCl2, 50 μM GDP, 10 μg/ml saponin,) with increasing concentrations of positive allosteric modulator (from 0.3 nM to 50 μM) and either a minimal pre-determined concentration of glutamate (PAM assay), or no added glutamate. For the PAM assay, membranes were pre-incubated with glutamate at EC25 concentration, i.e. a concentration that gives 25% of the maximal response glutamate, and is in accordance to published data (Pin et al. (1999) Eur. J. Pharmacol. 375:277-294). After addition of [^35S]GTPγS (0.1 nM, f.c.) to achieve a total reaction volume of 200 μl, microplates were shaken briefly and further incubated to allow [^35S]GTPγS incorporation on activation (30 minutes, 30° C.). The reaction was stopped by rapid vacuum filtration over glass-fibre filter plates (Unifilter 96-well GF/B filter plates, Perkin-Elmer, Downers Grove, USA) microplate using a 96-well plate cell harvester (Filtermate, Perkin-Elmer, USA), and then by washing three times with 300 μl of ice-cold wash buffer (Na2PO4.2H2O 10 mM, NaH2PO4.H2O 10 mM, pH=7.4). Filters were then air-dried, and 40 μl of liquid scintillation cocktail (Microscint-O) was added to each well, and membrane-bound [^35S]GTPγS was measured in a 96-well scintillation plate reader (Top-Count, Perkin-Elmer, USA). […]

T1 sequence (Q14416 19-872): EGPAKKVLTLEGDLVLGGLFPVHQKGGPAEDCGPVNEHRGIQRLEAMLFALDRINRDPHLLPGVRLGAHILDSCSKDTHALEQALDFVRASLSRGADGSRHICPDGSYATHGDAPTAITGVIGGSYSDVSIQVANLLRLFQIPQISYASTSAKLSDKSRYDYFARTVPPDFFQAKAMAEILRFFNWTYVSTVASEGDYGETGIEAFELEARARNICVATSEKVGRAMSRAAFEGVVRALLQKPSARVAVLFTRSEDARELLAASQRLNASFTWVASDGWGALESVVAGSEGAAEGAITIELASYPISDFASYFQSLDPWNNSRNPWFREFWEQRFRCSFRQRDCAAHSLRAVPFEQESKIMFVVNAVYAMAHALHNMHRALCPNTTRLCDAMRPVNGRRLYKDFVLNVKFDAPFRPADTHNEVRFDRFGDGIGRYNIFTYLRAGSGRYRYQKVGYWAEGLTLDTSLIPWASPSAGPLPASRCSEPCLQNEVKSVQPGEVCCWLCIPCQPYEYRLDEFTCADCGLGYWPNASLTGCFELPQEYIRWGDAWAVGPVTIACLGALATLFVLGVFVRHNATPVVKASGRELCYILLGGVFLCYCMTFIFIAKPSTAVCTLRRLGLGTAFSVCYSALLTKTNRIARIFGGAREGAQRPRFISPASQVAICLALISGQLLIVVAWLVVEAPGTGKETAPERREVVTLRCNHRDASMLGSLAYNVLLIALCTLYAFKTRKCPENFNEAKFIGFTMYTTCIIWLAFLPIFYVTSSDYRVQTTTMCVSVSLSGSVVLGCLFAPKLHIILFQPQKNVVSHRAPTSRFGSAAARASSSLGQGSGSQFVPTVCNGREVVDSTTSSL

SMILES	EC50 [nM]	GTPgS - hR2 PAM pEC50
CC(C)CCn1ccc(C#Cc2cccc(N(C)C)c2)c(C#N)c1=O [1-269]	158	–
CCCCn1ccc(-c2ccc(Oc3ncccn3)cc2)c(C#N)c1=O [1-074]	5010	–
CC(C)CCn1ccc(-c2ccc(NC3CCCCC3)cc2)c(C#N)c1=O [1-188]	50.1	–
COc1ccc(COc2ccn(CCC(C)C)c(=O)c2C#N)cc1F [1-283]	794	–
COCCNc1ccc(-c2ccn(CCC(C)C)c(=O)c2C#N)cc1 [1-174]	1580	–
CC(C)CCn1ccc(Oc2ccccc2)c(C#N)c1=O [1-274]	1580	–
CC(C)CCn1ccc(OCc2ccc(Br)cc2)c(C#N)c1=O [1-278]	316	–
COc1cc(-c2ccn(CCC(C)C)c(=O)c2C#N)ccc1OCc1ccncc1 [1-167]	501	–
CC(C)CCn1ccc(-c2ccc(Nc3ccncc3)cc2)c(C#N)c1=O [1-208]	1260	–
CC(C)CCn1ccc(-c2ccc(NC3CCS(=O)(=O)CC3)cc2)c(C#N)c1=O [1-217]	2510	–
CC(C)Oc1ccc(-c2ccn(Cc3ccc(F)cc3)c(=O)c2C#N)cc1Cl [1-025]	100	–
CC(C)CCn1ccc(-c2ccc(OC(F)F)cc2)c(C#N)c1=O [1-119]	631	–
COc1ccc(-c2ccn(Cc3ccc(C)cc3)c(=O)c2C#N)cc1 [1-021]	631	–
CC(C)CCn1ccc(-c2ccc(N(C)c3ccccc3)cc2)c(C#N)c1=O [1-195]	126	–
CC(C)Oc1ccc(-c2ccn(CCOc3ccccc3)c(=O)c2C#N)cc1Cl [1-049]	126	–
CCCCn1ccc(N[C@H]2CC[C@H](c3ccccc3)CC2)c(C#N)c1=O [1-297]	200	–
CC(C)CCn1ccc(OCc2ccc(C(F)(F)F)cc2)c(C#N)c1=O [1-277]	251	–
CCCCn1ccc(OCc2ccc(-c3cccc(C)n3)cc2)c(C#N)c1=O [1-306]	3980	–
COc1cc(-c2ccn(CCC(C)C)c(=O)c2C#N)ccc1NC(C)C [1-183]	251	–
CC1COCC(C)N1Cc1ccc(-c2ccn(Cc3ccc(OC(F)(F)F)cc3)c(=O)c2C#N)cc1 (stereo not shown) [1-036]	631	–
CCCCn1ccc(-c2ccc(Oc3ccncn3)cc2)c(C#N)c1=O [1-075]	5010	–
CC(C)CCn1ccc(CCc2ccc(N(C)C)cc2)c(C#N)c1=O [1-263]	1000	–
CC(C)CCn1ccc(-c2ccc(OC3CCCC3)c(Cl)c2)c(C#N)c1=O [1-124]	50.1	–
COc1cc(-c2ccn(CCC(C)C)c(=O)c2C#N)ccc1OCc1ccccc1 [1-142]	316	–

SMILES	EC50 [nM]	GTPgS - hR2 PAM pEC50
CCCCn1ccc(-c2ccc(Oc3ccc(C#N)cn3)cc2)c(C#N)c1=O [1-072]	1580	–
CC(C)CCn1ccc(-c2ccc(OCCOC3CCCCO3)cc2)c(C#N)c1=O (stereo not shown) [1-137]	1000	–
N#Cc1c(-c2ccccc2)ccn(CCOc2ccccc2)c1=O [1-047]	2510	–
CCCCn1ccc(-c2ccc(Oc3ccnc(C)c3)cc2)c(C#N)c1=O [1-064, 3-cyano-1-butyl-4-[4-(2-methyl-pyridin-4-yloxy)-phenyl]-pyridine-2(1H)-one]	–	6.4
CC(C)CCn1ccc(-c2ccc(OCCN3CCOCC3)cc2)c(C#N)c1=O [1-139]	3980	–
CC(C)CCn1ccc(-c2ccc3c(c2)OCCO3)c(C#N)c1=O [1-253]	501	–
CC(C)CCn1ccc(-c2ccc(OCc3nnc[nH]3)cc2)c(C#N)c1=O [1-168]	6310	–
CC(C)CCn1ccc(-c2ccc(COc3ccncc3)cc2)c(C#N)c1=O [1-160]	631	–
C[C@@H]1COC[C@H](C)N1Cc1ccc(-c2ccn(Cc3ccc(OC(F)(F)F)cc3)c(=O)c2C#N)cc1 [1-034]	1260	–
CC(C)CCn1ccc(-c2ccc(N3CCCC3=O)cc2)c(C#N)c1=O [1-249]	3980	–
CCCCn1ccc(-c2ccc(Oc3ccncc3)cc2F)c(C#N)c1=O [1-066]	501	–
CC(=O)NCCNc1ccc(-c2ccn(CCC(C)C)c(=O)c2C#N)cc1 [1-182]	3160	–
CC(C)CCn1ccc(-c2ccc(Cl)s2)c(C#N)c1=O [1-083]	200	–
CC(C)CCn1ccc(-c2ccc(OCc3ccncc3)c(Cl)c2)c(C#N)c1=O [1-165]	79.4	–
CC(C)CCn1ccc(-c2ccc(N3CCCCC3)cc2)c(C#N)c1=O [1-219]	200	–
CC(C)CCn1ccc(-c2ccc(OC3CCCC3)cc2)c(C#N)c1=O [1-135]	1000	–
CC(C)CCn1ccc(-c2ccc(N3CCN(c4ccccc4)CC3)cc2)c(C#N)c1=O [1-233]	631	–
CC(C)CCn1ccc(Nc2ccc(N3CCOCC3)cc2)c(C#N)c1=O [1-300]	2000	–
COc1ccc(C#Cc2ccn(CCC(C)C)c(=O)c2C#N)cc1 [1-268]	50.1	–
CC(C)CCn1ccc(CCc2cccc(N(C)C)c2)c(C#N)c1=O [1-262]	1580	–
COC(=O)c1cccc(-c2ccn(CCC(C)C)c(=O)c2C#N)c1 [1-242]	3980	–
CC(C)CCn1ccc(-c2ccc(OCCF)c(Cl)c2)c(C#N)c1=O [1-121]	501	–
CCCCn1ccc(-c2ccc(Oc3cccc(C(F)(F)F)n3)cc2)c(C#N)c1=O [1-068]	251	–
COc1cc(-c2ccn(CCC(C)C)c(=O)c2C#N)ccc1OCCOC1CCCCO1 (stereo not shown) [1-138]	794	–

Other lines, results leading:

EC50 [nM]	GTPgS - hR2 PAM pEC50	SMILES
200	–	CC(C)CCn1ccc(N2CCc3c(sc4ccc(Cl)cc34)C2)c(C#N)c1=O [5-042]
1580	–	CCCCn1ccc(N2CCC(COc3cccnc3)CC2)c(C#N)c1=O [4-007]
794	–	CC(C)CCn1ccc(N2CCN(CCOc3cccc(C(F)(F)F)c3)CC2)c(C#N)c1=O [2-020]
3980	–	Cc1nnc(N2CCN(c3ccn(CCC(C)C)c(=O)c3C#N)CC2)c2ccccc12 [2-034]
5010	–	N#Cc1c(N2CCC(O)(c3cccnc3)CC2)ccn(Cc2ccc(OC(F)(F)F)cc2)c1=O [4-063]
1000	–	COc1ccccc1N1CCCN(c2ccn(CCC(C)C)c(=O)c2C#N)CC1 [5-044]
126	–	CC(C)CCn1ccc(N2CCC(OCc3cccc(C(F)(F)F)c3)CC2)c(C#N)c1=O [4-020]
1580	–	CC(C)CCn1ccc(-c2ccc3[nH]ncc3c2)c(C#N)c1=O [5-021]
5010	–	N#Cc1c(N2CCN(Cc3ccccc3)CC2)ccn(CCOCc2ccccc2)c1=O [2-054]
6310	–	CC(C)CCn1ccc(N2CCN(c3ccc(C#N)cn3)CC2)c(C#N)c1=O [2-027]
2000	–	CC(C)CCn1ccc(N2CCN(c3ccc(-c4ccccc4)nn3)CC2)c(C#N)c1=O [2-033]
2000	–	N#Cc1c(N2CCC(c3ccccc3)CC2)ccn(CC2CCCCO2)c1=O (stereo not shown) [4-048]
1260	–	COc1cc2c(cc1OC)CN(c1ccn(CCC(C)C)c(=O)c1C#N)CC2 [5-032]
100	–	CC(C)CCn1ccc(N2CCC(n3ccc4ccccc43)CC2)c(C#N)c1=O [4-035]
1260	–	CC(C)CCn1ccc(N2CCC(CN(C)Cc3ccc(F)cc3)CC2)c(C#N)c1=O [4-030]
126	–	CC(C)CCn1ccc(N2CCC(c3noc(-c4ccccc4)n3)CC2)c(C#N)c1=O [4-041]
158	–	CCCCn1ccc(N2CCN(c3ncc(C4CC4)cn3)CC2)c(C#N)c1=O [2-006]
501	–	N#Cc1c(N2CCC(N3CCc4ccccc4C3)CC2)ccn(Cc2ccc(OC(F)(F)F)cc2)c1=O [4-051]
5010	–	N#Cc1c(N2CCN(Cc3ccncc3)CC2)ccn(Cc2ccc(OC(F)(F)F)cc2)c1=O [2-047]
